Experimental data reported in ChEMBL document CHEMBL1201862, “PubChem BioAssay data set” (2004).
Values joined by “and” are separate entries in the source; they are usually repeats but may differ in a detail not shown here. Equal entries are not always repeated. Active and inactive are the calls of the source.

Experiments:
[1] = target: Glutathione-S-transferase (Schistosoma japonicum, UniProt Q26513); assay: biotin-GST/anti-GST TR-FRET signal inhibitors, dose response, artefact control for Vif-APOBEC3G degradation inhibitor project, biochemical (AID 1117362); assay type: functional
[2] = target: NAD-dependent protein deacylase sirtuin-5, mitochondrial (Homo sapiens, UniProt Q9NXA8); assay: SIRT5 desuccinylase inhibitors, dose response, biochemical, fluorescence imaging, cherry-pick, set 5 (AID 720591);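 further: desuccinylation of succinyl peptide AMC substrate read as fluorescence after trypsin release; potency of inhibitors that lower fluorescence and may act on trypsin instead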
Protein skinhead-1 = target: T1, Protein skinhead-1 (Caenorhabditis elegans, UniProt P34707); assay type: functional
T1 sequence (P34707 whole entry): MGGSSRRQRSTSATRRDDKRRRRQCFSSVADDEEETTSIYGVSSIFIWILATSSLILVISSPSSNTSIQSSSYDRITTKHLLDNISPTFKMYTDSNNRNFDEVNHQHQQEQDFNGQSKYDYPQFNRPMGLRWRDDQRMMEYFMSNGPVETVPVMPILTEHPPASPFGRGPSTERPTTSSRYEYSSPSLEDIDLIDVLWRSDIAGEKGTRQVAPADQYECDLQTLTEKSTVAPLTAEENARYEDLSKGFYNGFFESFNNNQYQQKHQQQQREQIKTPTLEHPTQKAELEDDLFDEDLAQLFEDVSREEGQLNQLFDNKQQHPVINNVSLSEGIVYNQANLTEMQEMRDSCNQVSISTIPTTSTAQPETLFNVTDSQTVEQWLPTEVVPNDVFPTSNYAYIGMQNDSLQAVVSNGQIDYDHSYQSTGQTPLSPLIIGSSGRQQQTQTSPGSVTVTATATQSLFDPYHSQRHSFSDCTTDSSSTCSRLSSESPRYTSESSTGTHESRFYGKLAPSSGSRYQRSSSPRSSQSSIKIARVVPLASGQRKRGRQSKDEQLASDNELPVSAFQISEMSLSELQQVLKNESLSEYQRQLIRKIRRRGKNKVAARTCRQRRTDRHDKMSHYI

Caspase-6 = Caspase-6 (Homo sapiens, UniProt P55212); assay: human caspase-6 inhibitors, dose response, biochemical, VEID-R110 fluorescence, cherry-pick (AID 720632)
Prothrombin = Prothrombin (Bos taurus, UniProt P00735); assay: thrombin inhibition, dose response, biochemical, fluorescence polarization, uHTS hits (AID 602369); assay type: functional
[3] = target: 72 kDa type IV collagenase (Homo sapiens, UniProt P08253); assay: Dose Response validation of uHTS RPN11 inhibitor hits using a MMP-2 Fluorescence assay.; assay type: functional
[4] = target: 26S proteasome non-ATPase regulatory subunit 14 (Homo sapiens, UniProt O00487); assay: inhibition of proteasome subunit RPN11 – biochemical, fluorescence polarization, uHTS hits, confirmation (AID 602368); assay type: functional
Phospholipase D1 = target: T2, Phospholipase D1 (Homo sapiens, UniProt Q13393); assay: PLD1 Cellular Concentration Response Study.; assay type: functional
T2 sequence (Q13393 whole entry): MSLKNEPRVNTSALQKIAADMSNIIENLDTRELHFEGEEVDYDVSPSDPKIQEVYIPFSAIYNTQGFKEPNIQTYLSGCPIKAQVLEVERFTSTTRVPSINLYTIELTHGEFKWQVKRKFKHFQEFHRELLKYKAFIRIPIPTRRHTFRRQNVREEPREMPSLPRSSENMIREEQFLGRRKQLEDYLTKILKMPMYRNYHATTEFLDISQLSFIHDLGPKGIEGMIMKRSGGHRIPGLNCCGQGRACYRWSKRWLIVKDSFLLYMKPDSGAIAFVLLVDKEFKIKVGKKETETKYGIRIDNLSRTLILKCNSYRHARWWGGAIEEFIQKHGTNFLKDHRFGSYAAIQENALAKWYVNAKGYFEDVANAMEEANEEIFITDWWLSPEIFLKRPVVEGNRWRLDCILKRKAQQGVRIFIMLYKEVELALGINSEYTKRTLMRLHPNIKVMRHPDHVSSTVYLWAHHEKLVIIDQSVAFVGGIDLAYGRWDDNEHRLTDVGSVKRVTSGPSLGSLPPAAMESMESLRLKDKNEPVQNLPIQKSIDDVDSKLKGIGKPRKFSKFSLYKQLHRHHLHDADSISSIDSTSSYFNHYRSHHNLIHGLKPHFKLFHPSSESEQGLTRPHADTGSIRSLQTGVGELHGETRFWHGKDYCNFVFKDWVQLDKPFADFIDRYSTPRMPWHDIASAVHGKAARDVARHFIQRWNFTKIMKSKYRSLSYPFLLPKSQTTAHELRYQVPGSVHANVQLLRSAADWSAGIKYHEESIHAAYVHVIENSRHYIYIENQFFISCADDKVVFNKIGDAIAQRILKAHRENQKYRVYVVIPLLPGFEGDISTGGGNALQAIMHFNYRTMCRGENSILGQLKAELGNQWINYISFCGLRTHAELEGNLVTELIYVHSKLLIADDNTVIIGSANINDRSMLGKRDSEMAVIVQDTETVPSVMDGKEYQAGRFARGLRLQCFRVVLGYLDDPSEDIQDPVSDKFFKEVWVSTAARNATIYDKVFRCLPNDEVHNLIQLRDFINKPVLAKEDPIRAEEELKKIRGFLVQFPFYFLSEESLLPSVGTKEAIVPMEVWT

Phospholipase D2 = Phospholipase D2 (Homo sapiens, UniProt O14939); assay: PLD2 Cellular Concentration Response Study.; assay type: functional
[5] = P. falciparum 3D7-ScDHODH growth inhibitors, dose response, SYBR Green, dry powder samples (AID 1159570); assay type: functional, cell-based;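 further: parasite growth measured after 72 hours of compound exposure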
[6] = non-specific cell cytotoxicity, dose response, cytotoxicity control for PAX8 inhibitor project, plate reader, dry powder samples (AID 743021); assay type: functional, cell-based
Paired box protein Pax-8 = Paired box protein Pax-8 (Homo sapiens, UniProt Q06710); assay: inhibitors of PAX8-driven TPO luciferase reporter, dose response, RMG-I cells, cherry-pick (AID 687027); assay type: functional, cell-based;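 further: luciferase reporter driven by Pax8 target thyroperoxidase promoter measured by SteadyGlo luminescence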
[7] = A2780 ovarian cancer cell cytotoxicity, dose response, cytotoxicity control, plate reader, dry powder samples (AID 743046); assay type: functional, cell-based
[8] = cytotoxicity in OVCAR8 ovarian cancer cells, dose response, PAX8 project, cell-based, plate reader, dry powder samples (AID 743197); assay type: functional; settings: OVCAR-8
[9] = IOSE-T80 ovarian epithelial cell cytotoxicity, dose response, cytotoxicity control for PAX8 inhibitor project, plate reader, dry powder samples (AID 743045); assay type: functional, cell-based
[10] = P. falciparum ATP4 D1247Y mutant growth inhibitors, dose response, NITD609-resistant line, SYBR Green, dry powder (AID 1159571); assay type: functional, cell-based;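 further: parasites synchronized at ring stage by sorbitol before testing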
[11] = HepG2 cell cytotoxicity, dose response, cytotoxicity control, plate reader, dry powder samples (AID 1159569); assay type: functional, cell-based;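 further: inhibitor potency with signal falling toward the positive control level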
[12] = P. falciparum Dd2 growth inhibitors, dose response, SYBR Green, cherry-picked samples (AID 1159567); assay type: functional, cell-based
[13] = NIH:OVCAR-3 ovarian cancer cell cytotoxicity, dose response, PAX8 inhibitor project, plate reader, dry powder samples (AID 743044); assay type: functional, cell-based
[14] = P. falciparum Dd2 growth inhibitors, dose response, SYBR Green, dry powder samples (AID 1159566); assay type: functional, cell-based;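 further: potency for growth inhibition with lower SYBR green DNA signal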
[15] = IGROV1 ovarian cancer cell cytotoxicity, dose response, PAX8 inhibitor project, plate reader, dry powder samples (AID 743043); assay type: functional, cell-based; settings: IGROV-1
[16] = target: G-protein coupled receptor 183 (Homo sapiens, UniProt P32249); assay: SAR confirmation of small molecule antagonists of the EBI2 receptor via a luminescent beta-arrestin assa.; assay type: functional
[17] = CTGF mRNA reduction under YAP1 overexpression, dose response, mechanism study for YAP1 pathway inhibitor project, DLD1 cells, RT-qPCR, cherry-pick (AID 1053127); assay type: functional, cell-based; settings: DLD-1
[18] = target: Oxysterols receptor LXR-beta (Homo sapiens, UniProt P55055); assay: LXR agonists, Gal4 luciferase reporter, dose response, counter-screen for ssDAF-12 agonist project, cell-based, luminescence, HEK293, S. stercoralis campaign (AID 720737); assay type: functional; settings: read-out: IC50 (the source's name)
[19] = Luminescence-based cell-based high throughput dose response assay to identify activators of the DAF-12 from the parasite S. stercoralis (ssDAF-12).; assay type: functional
[20] = inhibitors of PGC1a acetylation in cells, dose response, cell-based, cherry-picked samples (AID 720514); assay type: functional;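 further: potency may reflect raised or lowered acetylation signal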
[21] = inhibitors of non-replicating M. tuberculosis, dose response, luciferase, dry powder (AID 651619); assay type: functional; settings: Mycobacterium tuberculosis
[22] = inhibitors of non-replicating M. tuberculosis, dose response, luciferase, dry powder (AID 651620); assay type: functional; settings: Mycobacterium tuberculosis
[23] = cytotoxicity in HeLa cells, dose response, cytotoxicity control, cell-based, plate reader, dry powder (AID 651946); assay type: functional
[24] = luciferase signal loss, tTA control fusion, HeLa F-luc tTA cells, dry powder, counter-screen for HIV Env fusion inhibitor project, dose response (AID 687021); assay type: functional, cell-based
[25] = HIV Env cell-cell fusion inhibitors, dose response, HIV entry, plate reader, dry powder (AID 687023); assay type: functional, cell-based
[26] = CEM21 cell cytotoxicity, dose response, cytotoxicity control, plate reader, dry powder (AID 687026); assay type: functional, cell-based
Kallikrein-7 = Kallikrein-7 (Homo sapiens, UniProt P49862); assay: Fluorescence Intensity-based biochemical primary high throughput dose response assay to identify activators of kallikrein-7 (K7) zymogen.
[27] = target: E3 ubiquitin-protein ligase UHRF1 (Homo sapiens, UniProt Q96T88); assay: Counterscreen for inhibitors of 5-meCpG-binding domain protein 2 (MBD2): TRFRET-based biochemical high throughput dose response assay to identify inhibitors of binding of ubiquitin-like with PHD and ring finger domains 1 (UHRF1) to methylated oligonucleotide.
[28] = cytotoxicity toward HCT116 cells – cell-based, CellTiter-Glo luminescence, IC50, dose response (AID 1117332); assay type: functional; settings: HCT-116
[29] = HeLa 4N DNA content increase, dose response, cell-based, IC50 (AID 1117351); assay type: functional
[30] = HeLa 2N DNA content increase, dose response, cell-based, IC50 (AID 1117349); assay type: functional
[31] = cytotoxicity toward Colo320 cells – cell-based, CellTiter-Glo luminescence, IC50, dose response (AID 1117334); assay type: functional; settings: COLO 320
[32] = Concentration-dependent survival of SW480 colon cancer line, luminescence detection with CellTiter-Glo, half-maximal inhibitory concentration (AID 1117338); assay type: functional
[33] = RKO cell viability reduction, dose response, CellTiter-Glo luminescence (AID 1117322); assay type: functional
[34] = CellTiter-Glo luminescent dose response of DLD-1 viability loss (AID 1117352); assay type: functional
[35] = SNU-C1 cell viability reduction, dose response, CellTiter-Glo luminescence (AID 1117323); assay type: functional, cell-based
[36] = HCT116 cell viability decrease, GSK3B pretreatment – CellTiter-Glo, IC50, dose response (AID 1117339); assay type: functional; settings: HCT-116
cells = settings: HEK293

Chain of NAD-dependent protein deacylase sirtuin-5, mitochondrial (Q9NXA8 whole entry): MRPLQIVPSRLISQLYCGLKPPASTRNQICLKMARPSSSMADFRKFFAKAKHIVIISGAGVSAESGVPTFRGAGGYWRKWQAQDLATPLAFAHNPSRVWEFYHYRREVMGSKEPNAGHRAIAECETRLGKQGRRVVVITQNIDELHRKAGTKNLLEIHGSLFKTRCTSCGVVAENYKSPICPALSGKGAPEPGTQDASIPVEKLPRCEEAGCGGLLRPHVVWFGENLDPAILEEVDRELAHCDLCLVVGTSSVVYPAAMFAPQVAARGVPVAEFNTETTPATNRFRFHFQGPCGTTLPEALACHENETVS
Chain of E3 ubiquitin-protein ligase UHRF1 (Q96T88 whole entry, the tested form may be a part): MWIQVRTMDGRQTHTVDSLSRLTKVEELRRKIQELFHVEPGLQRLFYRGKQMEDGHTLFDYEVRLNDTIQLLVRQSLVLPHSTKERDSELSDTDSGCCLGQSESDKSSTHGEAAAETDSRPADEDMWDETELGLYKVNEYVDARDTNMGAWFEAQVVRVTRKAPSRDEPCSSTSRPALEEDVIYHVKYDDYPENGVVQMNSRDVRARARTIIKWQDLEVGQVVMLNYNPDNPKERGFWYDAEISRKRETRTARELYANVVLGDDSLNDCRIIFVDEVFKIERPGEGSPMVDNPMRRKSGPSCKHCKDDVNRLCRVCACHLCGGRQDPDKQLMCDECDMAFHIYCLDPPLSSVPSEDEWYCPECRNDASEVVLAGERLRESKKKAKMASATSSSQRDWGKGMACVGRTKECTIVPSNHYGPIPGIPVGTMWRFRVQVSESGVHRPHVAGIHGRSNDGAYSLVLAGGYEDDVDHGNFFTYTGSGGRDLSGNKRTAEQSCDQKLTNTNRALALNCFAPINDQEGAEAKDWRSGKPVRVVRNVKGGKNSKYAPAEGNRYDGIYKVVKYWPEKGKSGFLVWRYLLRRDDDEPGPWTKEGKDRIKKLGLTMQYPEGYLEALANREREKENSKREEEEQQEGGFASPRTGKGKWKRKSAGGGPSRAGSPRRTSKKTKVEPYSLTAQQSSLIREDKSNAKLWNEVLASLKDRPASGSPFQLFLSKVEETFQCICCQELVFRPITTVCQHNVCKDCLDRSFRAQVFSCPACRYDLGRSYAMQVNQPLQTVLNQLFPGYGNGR
Chain of Phospholipase D2 (O14939 whole entry): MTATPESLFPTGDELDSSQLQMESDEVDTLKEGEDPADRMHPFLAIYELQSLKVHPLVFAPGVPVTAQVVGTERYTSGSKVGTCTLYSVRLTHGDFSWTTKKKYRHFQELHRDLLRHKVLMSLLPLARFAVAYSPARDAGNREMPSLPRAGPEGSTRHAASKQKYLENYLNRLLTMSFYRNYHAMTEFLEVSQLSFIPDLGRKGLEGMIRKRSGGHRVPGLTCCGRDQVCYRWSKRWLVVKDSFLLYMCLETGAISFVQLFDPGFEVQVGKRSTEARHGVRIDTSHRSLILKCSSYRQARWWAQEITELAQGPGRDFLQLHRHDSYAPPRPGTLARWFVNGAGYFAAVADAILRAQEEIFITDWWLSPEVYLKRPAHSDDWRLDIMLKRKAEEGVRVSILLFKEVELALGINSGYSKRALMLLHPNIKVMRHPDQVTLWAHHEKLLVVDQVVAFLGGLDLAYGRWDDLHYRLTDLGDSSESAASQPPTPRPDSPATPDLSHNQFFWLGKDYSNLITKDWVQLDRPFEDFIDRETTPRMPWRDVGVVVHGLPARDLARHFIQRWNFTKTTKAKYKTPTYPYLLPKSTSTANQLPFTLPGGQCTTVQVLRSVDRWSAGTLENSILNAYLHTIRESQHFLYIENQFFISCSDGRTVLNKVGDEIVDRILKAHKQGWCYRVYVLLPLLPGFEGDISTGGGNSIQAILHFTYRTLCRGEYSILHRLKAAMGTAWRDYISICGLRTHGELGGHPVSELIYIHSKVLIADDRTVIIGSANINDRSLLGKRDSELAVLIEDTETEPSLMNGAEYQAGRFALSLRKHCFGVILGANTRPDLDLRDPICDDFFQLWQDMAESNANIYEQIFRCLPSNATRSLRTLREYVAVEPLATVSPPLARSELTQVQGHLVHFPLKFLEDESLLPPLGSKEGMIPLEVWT
Chain of Paired box protein Pax-8 (Q06710 whole entry): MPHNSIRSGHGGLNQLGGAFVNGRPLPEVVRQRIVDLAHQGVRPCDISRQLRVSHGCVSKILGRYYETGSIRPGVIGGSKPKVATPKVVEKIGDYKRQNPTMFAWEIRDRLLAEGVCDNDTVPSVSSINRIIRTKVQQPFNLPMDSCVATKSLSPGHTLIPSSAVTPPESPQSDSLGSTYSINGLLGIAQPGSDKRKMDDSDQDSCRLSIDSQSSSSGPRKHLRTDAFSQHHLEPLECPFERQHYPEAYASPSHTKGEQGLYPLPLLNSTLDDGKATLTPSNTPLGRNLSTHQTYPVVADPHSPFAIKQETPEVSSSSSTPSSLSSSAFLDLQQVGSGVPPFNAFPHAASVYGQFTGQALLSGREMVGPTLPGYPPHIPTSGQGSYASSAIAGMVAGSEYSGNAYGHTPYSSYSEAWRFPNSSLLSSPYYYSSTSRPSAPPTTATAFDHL
Chain of Glutathione-S-transferase (Q26513 whole entry): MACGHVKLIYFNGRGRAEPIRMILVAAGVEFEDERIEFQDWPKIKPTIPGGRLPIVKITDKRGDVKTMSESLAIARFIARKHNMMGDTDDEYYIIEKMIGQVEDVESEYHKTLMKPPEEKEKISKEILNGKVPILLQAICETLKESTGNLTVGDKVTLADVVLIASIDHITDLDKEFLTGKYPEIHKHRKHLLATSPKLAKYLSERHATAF
Chain of Caspase-6 (P55212 24-179 limits assumed): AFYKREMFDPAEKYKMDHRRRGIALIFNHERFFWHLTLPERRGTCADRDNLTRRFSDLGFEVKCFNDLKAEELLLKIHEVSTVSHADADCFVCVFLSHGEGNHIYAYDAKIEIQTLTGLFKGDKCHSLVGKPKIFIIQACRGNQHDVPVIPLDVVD
Chain of Caspase-6 (P55212 194-293 limits assumed): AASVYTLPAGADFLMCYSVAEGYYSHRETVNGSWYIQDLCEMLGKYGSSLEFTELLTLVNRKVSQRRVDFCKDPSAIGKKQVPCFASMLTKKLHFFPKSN
Chain of G-protein coupled receptor 183 (P32249 whole entry): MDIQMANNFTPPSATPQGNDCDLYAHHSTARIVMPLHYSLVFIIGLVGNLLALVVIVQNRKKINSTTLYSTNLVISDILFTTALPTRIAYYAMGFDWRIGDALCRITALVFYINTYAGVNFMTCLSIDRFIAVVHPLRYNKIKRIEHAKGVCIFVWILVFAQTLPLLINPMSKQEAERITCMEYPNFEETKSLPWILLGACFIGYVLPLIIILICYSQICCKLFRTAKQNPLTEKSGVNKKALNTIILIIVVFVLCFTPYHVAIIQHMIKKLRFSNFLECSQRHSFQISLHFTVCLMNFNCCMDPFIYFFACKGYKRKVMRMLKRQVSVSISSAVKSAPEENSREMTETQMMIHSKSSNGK
Chain of Kallikrein-7 (P49862 whole entry, the tested form may be a part): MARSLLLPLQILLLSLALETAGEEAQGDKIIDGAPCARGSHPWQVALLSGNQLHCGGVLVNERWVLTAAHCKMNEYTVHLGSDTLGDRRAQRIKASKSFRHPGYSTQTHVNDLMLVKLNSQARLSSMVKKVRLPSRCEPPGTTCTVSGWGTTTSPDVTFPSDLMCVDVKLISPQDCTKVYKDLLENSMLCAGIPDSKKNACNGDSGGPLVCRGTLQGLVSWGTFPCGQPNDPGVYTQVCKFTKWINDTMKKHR
Chain of 26S proteasome non-ATPase regulatory subunit 14 (O00487 whole entry): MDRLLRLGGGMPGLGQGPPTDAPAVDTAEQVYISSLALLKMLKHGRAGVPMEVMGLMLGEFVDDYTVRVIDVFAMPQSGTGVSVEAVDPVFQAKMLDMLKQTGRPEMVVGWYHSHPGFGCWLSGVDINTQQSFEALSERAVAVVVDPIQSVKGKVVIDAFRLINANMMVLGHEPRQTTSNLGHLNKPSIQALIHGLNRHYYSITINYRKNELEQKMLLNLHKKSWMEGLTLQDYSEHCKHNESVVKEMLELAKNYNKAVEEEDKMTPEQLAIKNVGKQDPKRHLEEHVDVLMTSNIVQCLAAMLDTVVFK
Chain of Oxysterols receptor LXR-beta (P55055 whole entry, the tested form may be a part): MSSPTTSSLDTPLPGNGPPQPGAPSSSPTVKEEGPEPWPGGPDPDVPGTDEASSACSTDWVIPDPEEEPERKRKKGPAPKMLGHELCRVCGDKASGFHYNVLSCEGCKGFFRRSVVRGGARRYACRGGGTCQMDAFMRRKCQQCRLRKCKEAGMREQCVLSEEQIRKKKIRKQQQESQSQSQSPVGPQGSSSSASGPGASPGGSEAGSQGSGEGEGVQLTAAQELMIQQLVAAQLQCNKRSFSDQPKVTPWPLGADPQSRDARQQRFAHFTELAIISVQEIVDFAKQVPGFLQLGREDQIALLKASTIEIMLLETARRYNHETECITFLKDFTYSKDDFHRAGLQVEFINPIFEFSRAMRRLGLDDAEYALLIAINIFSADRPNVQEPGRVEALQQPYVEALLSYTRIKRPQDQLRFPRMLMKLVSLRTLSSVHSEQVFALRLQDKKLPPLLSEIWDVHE

CC[n+]1ccc(C)c2cc(P(=O)(c3ccccc3)c3ccccc3)ccc21
IC50 [1]: 9.73 µM (active)

Fc1ccc(-c2nc3ccc(Cl)cn3c2Cc2ccsc2)cc1
AC50 [2]: 25.8 µM (active) | IC50 (Protein skinhead-1): 70.3 µM (inactive)

CN(CC(=O)Nc1ccc(F)c(F)c1F)C(=O)CCc1nc(O)c2c3c(sc2n1)CCCC3
AC50 (Caspase-6): 18.6 µM (active) | IC50 (Prothrombin): 61.3 µM (active) | IC50 [3]: > 100 µM (inactive) | IC50 [4]: 46.5 µM (active)

O=C(NCCN1CCC2(CC1)C(=O)NCN2C(=O)C1CC1)c1ccc2ccccc2c1
IC50 (Phospholipase D1): 3.1 µM (active) | IC50 (Phospholipase D2): 0.44 µM (active)

C[C@H]1CN([C@@H](C)CO)C(=O)c2c(c3ccccc3n2C)-c2ccccc2CO[C@H]1CN(C)S(=O)(=O)c1ccc([N+](=O)[O-])cc1
AC50 [5]: 0.298 µM (active) | AC50 [6]: 48.5 µM (active) | AC50 (Paired box protein Pax-8): 2.72 µM (active) | AC50 [7]: 12.7 µM (active) | AC50 [8]: 10.2 µM (active) | AC50 [9]: 22.3 µM (active) | AC50 [10]: 0.237 µM (active) | AC50 [11]: 66.4 µM (active) | AC50 [12]: 0.629 µM (active) | AC50 [13]: 10.1 µM (active) | AC50 [14]: 0.234 µM (active) | AC50 [15]: 12.2 µM (active)

O=C(/C=C/c1ccc(F)cc1)N1CCN(S(=O)(=O)c2ccc(F)cc2)CC1
IC50 [16]: 0.0185 µM (active)

O=C(Nc1ccc(C(F)(F)F)cc1)Nc1ccc2c(c1)[C@H]1C[C@H](CC(=O)N3CCc4ccccc4C3)O[C@@H](CO)[C@H]1O2
AC50 [17]: > 26 µM (inactive)

CCc1ccc(-c2csc3ncn(CC)c(=O)c23)cc1
EC50 [18]: > 67.6 µM (inactive) | IC50 [19]: > 67.6 µM (inactive)

CC(C)CC#Cc1ccc2c(c1)O[C@@H](CN(C)Cc1ccc3c(c1)OCO3)[C@H](C)CN([C@H](C)CO)S2(=O)=O
AC50 [20]: 12.6 µM (active)

Clc1ccc(-c2nnc(SCc3cn(-c4ccccc4)nn3)o2)cc1
IC90 [21]: 1 µM (active) | IC90 [22]: 1 µM (active) | AC50 [23]: > 52 µM (inactive)

CCOc1ccc(C)cc1S(=O)(=O)NCc1ccncc1
AC50 [24]: > 70 µM (inactive) | AC50 [25]: 4.69 µM (active) and 8.19 µM (active) | AC50 [26]: > 70 µM (inactive)

COc1cccc(CNC(=O)c2ccc3c(c2)N(C)CCS3)c1OC
EC50 (Kallikrein-7): > 69.5 µM (inactive)

CC(=O)Nc1sc2c(c1-c1nc3ccccc3s1)CCCNC2
IC50 [27]: 15.3 µM (inactive)

O=C1C(I)=CC(=C(c2cc(I)c(O)c(I)c2)c2ccccc2C(=O)O)C=C1I [IODOPHTHALEIN SODIUM]
IC50 [28]: 0.384 µM (active) | IC50 [29]: > 10 µM (inactive) | IC50 [30]: > 10 µM (inactive) | IC50 [31]: 0.312 µM (active) | IC50 [32]: 0.112 µM (active) | IC50 [33]: 0.0373 µM (active) | IC50 [34]: 0.0132 µM (active) | IC50 [35]: 3.76 µM (active) | IC50 [36]: 0.054 µM (active)

COc1ccccc1OCCn1c(SC)nc2ccccc21
AC50 (cells): 29.1 µM (active)
